In ChEMBL document CHEMBL6127076, “Scaffold hopping-driven optimization for the identification of NLRP3 inhibitors as potential gout therapeutics” (Eur J Med Chem, 2024):
pIC50: −log10 of the molar value. In brackets after ≈: the same amount, converted by molar mass.

How the values were obtained:
[1] = Inhibition of NLRP3 inflammasome pathway in human THP-1 cells assessed as inhibition of LPS/MSU-induced IL-1beta secretion
[2] = test system: HEK-293T; assay: Cytotoxicity against human HEK293T cells assessed as cell viability at 50 uM measured after 24 hrs by CCK8 assay; format: toxicity, cell-based
[3] = Aqueous solubility of the compound in pH 7.4 PBS buffer; format: physicochemical
[4] = Plasma stability in human plasma assessed as compound remaining measured after 5 mins; format: ADME, cell-free; conditions: read-out: Stability
[5] = Plasma stability in human plasma assessed as compound remaining measured after 15 mins; format: ADME, cell-free; conditions: read-out: Stability
[6] = Plasma stability in human plasma assessed as compound remaining measured after 30 mins; format: ADME, cell-free; conditions: read-out: Stability
[7] = Plasma stability in human plasma assessed as compound remaining measured after 60 mins; format: ADME, cell-free; conditions: read-out: Stability
[8] = Plasma stability in human plasma assessed as compound remaining measured after 120 mins; format: ADME, cell-free; conditions: read-out: Stability
[9] = Plasma stability in human plasma assessed as half life; format: ADME, cell-free
[10] = Plasma stability in human plasma assessed as compound remaining measured immediately; format: ADME, cell-free; conditions: read-out: Stability
[11] = biological target: T1, Cytochrome P450 1A2 (Homo sapiens, UniProt P05177); assay: Inhibition of CYP1A2 (unknown origin); format: ADME
T1 sequence (P05177 whole entry): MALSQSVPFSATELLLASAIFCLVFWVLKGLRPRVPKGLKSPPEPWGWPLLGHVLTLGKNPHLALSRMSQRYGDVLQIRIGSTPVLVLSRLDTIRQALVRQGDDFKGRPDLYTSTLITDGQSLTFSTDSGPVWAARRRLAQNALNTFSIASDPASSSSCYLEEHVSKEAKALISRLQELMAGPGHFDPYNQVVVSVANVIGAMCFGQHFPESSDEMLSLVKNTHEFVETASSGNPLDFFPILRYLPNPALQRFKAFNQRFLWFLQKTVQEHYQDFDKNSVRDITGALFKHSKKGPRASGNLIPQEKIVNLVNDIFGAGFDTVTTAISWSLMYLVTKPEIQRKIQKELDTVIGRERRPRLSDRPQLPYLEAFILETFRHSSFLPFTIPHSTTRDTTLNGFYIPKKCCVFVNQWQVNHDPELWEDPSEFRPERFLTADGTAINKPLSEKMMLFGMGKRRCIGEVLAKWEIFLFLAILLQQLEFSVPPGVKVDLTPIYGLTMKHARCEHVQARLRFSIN

[12] = biological target: Cytochrome P450 2C9 (Homo sapiens, UniProt P11712); assay: Inhibition of CYP2C9 (unknown origin); format: ADME
Chain of Cytochrome P450 2C9 (P11712 whole entry): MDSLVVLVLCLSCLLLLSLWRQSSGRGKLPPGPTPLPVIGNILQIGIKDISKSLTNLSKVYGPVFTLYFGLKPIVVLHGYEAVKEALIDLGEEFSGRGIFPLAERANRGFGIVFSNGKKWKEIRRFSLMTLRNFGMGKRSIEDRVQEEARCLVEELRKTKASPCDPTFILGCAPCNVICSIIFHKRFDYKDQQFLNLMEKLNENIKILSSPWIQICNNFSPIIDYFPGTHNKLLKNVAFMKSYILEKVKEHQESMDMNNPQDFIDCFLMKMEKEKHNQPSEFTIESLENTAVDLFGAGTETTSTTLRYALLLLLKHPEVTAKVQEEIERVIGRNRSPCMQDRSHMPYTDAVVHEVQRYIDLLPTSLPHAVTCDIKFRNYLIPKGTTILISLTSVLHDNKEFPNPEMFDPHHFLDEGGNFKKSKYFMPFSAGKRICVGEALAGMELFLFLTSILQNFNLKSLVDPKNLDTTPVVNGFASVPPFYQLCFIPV

[13] = biological target: Cytochrome P450 2C19 (Homo sapiens, UniProt P33261); assay: Inhibition of CYP2C19 (unknown origin); format: ADME
Chain of Cytochrome P450 2C19 (P33261 whole entry): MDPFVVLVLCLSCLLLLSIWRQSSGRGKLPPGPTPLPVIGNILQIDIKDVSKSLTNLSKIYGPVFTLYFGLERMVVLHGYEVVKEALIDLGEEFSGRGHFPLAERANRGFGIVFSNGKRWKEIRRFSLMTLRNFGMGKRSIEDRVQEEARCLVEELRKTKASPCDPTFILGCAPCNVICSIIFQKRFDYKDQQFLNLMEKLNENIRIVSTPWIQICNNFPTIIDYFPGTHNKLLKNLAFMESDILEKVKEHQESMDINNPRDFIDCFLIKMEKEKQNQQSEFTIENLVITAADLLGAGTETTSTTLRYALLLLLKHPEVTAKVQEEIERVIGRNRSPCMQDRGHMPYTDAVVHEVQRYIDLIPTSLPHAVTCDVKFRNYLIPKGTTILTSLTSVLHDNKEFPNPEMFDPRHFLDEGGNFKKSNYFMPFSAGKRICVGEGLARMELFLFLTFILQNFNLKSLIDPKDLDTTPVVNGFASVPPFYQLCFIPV

[14] = biological target: T2, Cytochrome P450 3A4 (Homo sapiens, UniProt P08684); assay: Inhibition of CYP3A4 (unknown origin) using midazolam as substrate; format: ADME
T2 sequence (P08684 whole entry): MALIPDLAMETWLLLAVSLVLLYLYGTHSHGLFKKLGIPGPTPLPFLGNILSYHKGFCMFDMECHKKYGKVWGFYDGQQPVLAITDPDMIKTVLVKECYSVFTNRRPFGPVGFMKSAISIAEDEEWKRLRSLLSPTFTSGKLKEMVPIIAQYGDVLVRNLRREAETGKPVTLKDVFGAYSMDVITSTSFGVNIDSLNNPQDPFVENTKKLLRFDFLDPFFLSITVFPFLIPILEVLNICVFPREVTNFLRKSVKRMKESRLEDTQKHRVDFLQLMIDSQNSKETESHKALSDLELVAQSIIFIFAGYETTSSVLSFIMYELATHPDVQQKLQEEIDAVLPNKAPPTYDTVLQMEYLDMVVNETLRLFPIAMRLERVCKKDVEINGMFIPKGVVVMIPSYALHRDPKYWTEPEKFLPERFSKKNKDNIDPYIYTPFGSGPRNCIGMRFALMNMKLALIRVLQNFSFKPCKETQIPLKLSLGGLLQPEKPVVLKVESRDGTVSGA

[15] = biological target: T2, Cytochrome P450 3A4; assay: Inhibition of CYP3A4 (unknown origin) using testosterone as substrate; format: ADME
[16] = biological target: Cytochrome P450 2D6 (Homo sapiens, UniProt P10635); assay: Inhibition of CYP2D6 (unknown origin); format: ADME
Chain of Cytochrome P450 2D6 (P10635 whole entry): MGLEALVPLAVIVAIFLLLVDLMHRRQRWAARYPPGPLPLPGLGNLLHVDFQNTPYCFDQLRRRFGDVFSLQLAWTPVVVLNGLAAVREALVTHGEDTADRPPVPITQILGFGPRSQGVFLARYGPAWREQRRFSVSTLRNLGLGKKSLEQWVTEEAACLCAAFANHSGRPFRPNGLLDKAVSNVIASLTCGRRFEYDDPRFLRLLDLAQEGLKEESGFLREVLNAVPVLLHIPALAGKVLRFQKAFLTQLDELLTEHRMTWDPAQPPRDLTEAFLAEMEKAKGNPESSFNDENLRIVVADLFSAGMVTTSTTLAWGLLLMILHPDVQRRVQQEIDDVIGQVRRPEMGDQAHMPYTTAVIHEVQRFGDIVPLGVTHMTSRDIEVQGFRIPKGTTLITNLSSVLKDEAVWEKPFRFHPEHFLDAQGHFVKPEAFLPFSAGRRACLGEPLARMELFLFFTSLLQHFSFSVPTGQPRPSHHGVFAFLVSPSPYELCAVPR

| SMILES | pIC50 [1] | Activity [2] | solubility [3] [µM] | remaining at 5 min [4] [%] | remaining at 0.25 h [5] [%] | remaining at 0.5 h [6] [%] | remaining at 1 h [7] [%] | remaining at 2 h [8] [%] | remaining at 0 min [10] [%] | pIC50 [11] | pIC50 [12] | pIC50 [13] | pIC50 [14] | pIC50 [15] | pIC50 [16] | further results |
| --- | --- | --- | --- | --- | --- | --- | --- | --- | --- | --- | --- | --- | --- | --- | --- | --- |
| COc1ccc(N2C(=O)C(C)(C)N(Cc3ccc(Br)c(C)c3)C2=S)cc1 | 5.00 | Toxic | 0.032 (≈ 0.0139 µg/mL) | 99.2 | 96.6 | 104 | 105 | 97.3 | 100 | < 4.00 | 5.21 | 5.85 | < 5.00 | < 5.00 | < 5.00 | half-life [9]: 299 h |
| Cc1ccc(CN2C(=S)N(c3ccc(C(C)(C)C)cc3)C(=O)C2(C)C)cc1C | 5.37 | Toxic | 0.089 (≈ 0.0351 µg/mL) | 99.8 | 103 | 102 | 113 | 93.6 | 100 | < 4.00 | < 5.00 | 5.25 | < 5.00 | < 5.00 | < 5.00 | half-life [9]: 32.4 h |
| COc1ccc(N2C(=O)C(C)(C)N(Cc3ccc(C)c(C)c3)C2=S)cc1 | 5.16 | Toxic | 0.017 (≈ 0.00626 µg/mL) | 98.9 | 105 | 96.2 | 102 | 102 | 100 | < 4.00 | 5.34 | 5.53 | < 5.00 | < 5.00 | < 5.00 | – |
| CC(C)NCC(O)COc1cccc2ccccc12 (centres undefined) [PROPRANOLOL] | – | – | 91.2 (≈ 23.7 µg/mL) | – | – | – | – | – | – | – | – | – | – | – | – | – |
| CC(C)(C)c1ccc(N2C(=O)C(C)(C)N(Cc3ccc(S(N)(=O)=O)c(F)c3)C2=S)cc1 | 5.19 | Toxic | 19.3 (≈ 8.95 µg/mL) | 96.7 | 89.8 | 98.2 | 100 | 82.5 | 100 | < 4.00 | < 5.00 | < 5.00 | < 5.00 | < 5.00 | < 5.00 | half-life [9]: 10 h |
| COc1ccc(CN2C(=S)N(c3ccc(C(C)(C)C)cc3)C(=O)C2(C)C)cc1F | 4.86 | – | – | – | – | – | – | – | – | – | – | – | – | – | – | – |
| COc1ccc(N2C(=O)C(C)(C)N(Cc3ccc(C(C)C)cc3)C2=S)cc1 | 4.80 | – | – | – | – | – | – | – | – | – | – | – | – | – | – | – |
| COc1ccccc1N1C(=O)C(C)(C)N(Cc2ccc(C)c(C)c2)C1=S | < 4.70 | – | – | – | – | – | – | – | – | – | – | – | – | – | – | – |
| CC1(C)C(=O)N(c2cc(C(F)(F)F)cc(C(F)(F)F)c2)C(=S)N1Cc1ccc(S(N)(=O)=O)c(F)c1 | 5.08 | Toxic | 14 (≈ 7.61 µg/mL) | 91.3 | 98.8 | 93.3 | 100 | 91.8 | 100 | < 4.00 | 4.99 | < 5.00 | < 5.00 | < 5.00 | < 5.00 | – |
| C=C1C(=O)[C@]23[C@H](O)[C@H]1CC[C@H]2[C@@]12CO[C@]3(O)[C@@H](O)[C@@H]1C(C)(C)CC[C@@H]2O [ORIDONIN] | 5.72 | – | – | – | – | – | – | – | – | – | – | – | – | – | – | – |
| COc1ccc(N2C(=O)C(C)(C)N(Cc3ccc(-c4ccccc4C#N)cc3)C2=S)cc1 | < 4.70 | – | – | – | – | – | – | – | – | – | – | – | – | – | – | – |
| Cc1ccc(CN2C(=S)N(c3cccc(OCc4ccccc4)c3)C(=O)C2(C)C)cc1C | < 4.70 | – | – | – | – | – | – | – | – | – | – | – | – | – | – | – |
| CC(C)(C)c1ccc(N2C(=O)C(C)(C)N(Cc3ccc(C#N)c(Cl)c3)C2=S)cc1 | < 4.70 | – | – | – | – | – | – | – | – | – | – | – | – | – | – | – |
| COc1cccc(N2C(=O)C(C)(C)N(Cc3ccc(C)c(C)c3)C2=S)c1 | < 4.70 | – | – | – | – | – | – | – | – | – | – | – | – | – | – | – |
| COc1ccc(N2C(=O)C(C)(C)N(Cc3ccc(C)cc3)C2=S)cc1 | < 4.70 | – | – | – | – | – | – | – | – | – | – | – | – | – | – | – |
| COc1ccc(N2C(=O)C(C)(C)N(Cc3ccccc3C(F)(F)F)C2=S)cc1 | 4.53 | – | – | – | – | – | – | – | – | – | – | – | – | – | – | – |
